For test [1] the following is noted: above the Tc; ref [54]; cited from earlier work.
Test [2] can be described thus: Isothermal titration calorimetry. The class given is binding, Escherichia coli. To be noted: ITC, 37°C.
The conditions of test [3]: ref [52], cited from earlier work.
Test [4] is described as follows: Fluorometric assay, purified LPS. It is filed as binding. The following applies: E. coli, K. pneumoniae, S. enterica (and P. aeruginosa) LPS.
A further test relates to bacteria. To be noted: ref [47]; [48]; cited from earlier work.
The subject of the next test is A. baumannii ATCC 19606. It is filed as cell-based, Acinetobacter baumannii. The following applies: broth microdilution. On the technique in general: Broth dilution looks for growth in wells or tubes with falling amounts of substance.
The subject of a further test is K. pneumoniae ATCC 13883. The class given is cell-based, Klebsiella pneumoniae. To be noted: broth microdilution.
For test [5], the system named is colistin-resistant P. aeruginosa clinical isolate. The class given is cell-based, Pseudomonas aeruginosa. The following applies: broth microdilution, two replicates.
The subject of test [6] is colistin-resistant K. pneumoniae clinical isolate. The class given is cell-based, Klebsiella pneumoniae. The following applies: broth microdilution.
The test system of test [7] is colistin-resistant A. baumannii clinical isolate. The class given is cell-based, Acinetobacter baumannii. The following applies: broth microdilution.

Here are results for three molecules from publication PMC3106281 (Analytical biochemistry, 2010).

Values after ≈ are worked out from the molar mass of the structure shown. Like-named read-outs stand apart in the source and are kept apart here. Bridge positions count the residues as written; N and C are the ends. Square brackets hold non-standard residues; d marks the D form. Peptide text beside a SMILES is read from it. * marks the point of attachment. X1 = CC[C@H](C)CCCCC(=O)*; Dab = NCC[C@H](N)C(=O)O

For orientation: MIC means the lowest concentration found to suppress growth.

With polymyxin B [PmB], the “Calorimetric reaction with LPS” value in [1] is listed as “endothermic”; in test [3] (temperatures ≤30°C, below Tc of LPS), “endothermic”; in test [3] (≥35°C, above phase transition temperature, [53]), “exothermic”. The “Absolute peptide concentration in the cell where saturation began” value in test [2] (LPS 125 μM, 14th injection (PmB), 18th injection (DPmB3)) is 98 µM. Moreover, in test [2] (first set of sites, 20 mM HEPES pH 7.0, two-site model), the ΔH1 is -1.5 ± 0.4 kcal/mol. Further, the ΔS1 in test [2] (first set of sites, calculated from ΔH and ΔG0) is 6.9 kcal/mol. The same molecule displayed a ΔH2 in test [2] (second set of sites, 20 mM HEPES pH 7.0, two-site model) of -12 ± 3.7 kcal/mol. Besides, the ΔS2 in test [2] (second set of sites, calculated from ΔH and ΔG0) was -1.8 kcal/mol.
Turning to polymyxin B nonapeptide [PBN], the “Binding affinity for isolated LPS, comparison in words” value in test [4] is on record as “lowest binding affinity for LPS”. For the same molecule, in the test on bacteria, the Antibacterial activity entry is “negligible antibacterial activity”.
On to `CC[C@H](C)CCCCC(=O)N[C@@H](CCN)C(=O)N[C@H](C(=O)N[C@@H](CCN)C(=O)N[C@H]1CCNC(=O)[C@H]([C@@H](C)O)NC(=O)[C@H](CCN)NC(=O)[C@H](CCN)NC(=O)[C@H](CC(C)C)NC(=O)[C@@H](CC(C)C)NC(=O)[C@H](CCN)NC1=O)[C@@H](C)O` [Colistin, colistin] (X1-[Dab]T[Dab][Dab][Dab][dL]L[Dab][Dab]T; lactam 4-C (inferred); N-terminus assumed), for which the MIC is 1 µg/mL (≈ 0.855 µM) in the test with A. baumannii ATCC 19606; 1 µg/mL (≈ 0.855 µM) in the test with K. pneumoniae ATCC 13883; greater than 128 µg/mL in [5]; greater than 128 µg/mL in test [6]; 16 µg/mL (≈ 13.7 µM) in test [7].
